The values below come from patent US6420174B1, “Method of producing organogenetic tissue from a plant of the genus Mentha” (Council of Scientific and Industrial Research, priority 2000, dated 2002).

One data set has as its system Mentha arvensis callus. Kind of data set: Shooting response of callus in different media. Type of data set: cell-based, Mentha arvensis L. cv. Himalaya. The text has this: (§1) The plant variety used in these experiments was cv. Himalaya (U.S. Pat No. PP10935) of Mentha arvensis L. (2n=96). The suckers of M. arvensis L. cv. Himalaya for multiplication of the plant material and future experimentation were obtained from CIMAP's gene bank. For callus production, the explant material was collected from the field grown plants and surface sterilized by washing sequentially with 2% detergent, distilled water containing a few drops of Savlon (Johnson and Johnson, India), 0 1% acidified mercuric chloride and autoclaved distilled water before inoculation. About 1 cm long internode pieces were inoculated in the Murashige and Skoog medium (Murashige T, Skoog F; 1962. A revised medium for rapid growth and bioassay with tobacco tissue cultures. Physiol Planta, 15:473-497) supplemented with 0.2 μg ml^−1 of an auxin (NAA, 1-napthalene acetic acid) and 5 μg ml^−1 of a cytokinin (BAP, benzyl aminopurine). […]
(§2) In the next phase, the callus was sub cultured in three different media: i) the basal medium MSO containing only the vitamins and minerals without any growth hormones; ii) MSA-2 medium which is MSO with 0.2 μg ml^−1 concentration of NAA and 5 μg ml^−1 of a cytokinin BAP; and iii) MT-80 medium which is MSO with only 80 μg ml^−1 menthol. […] The response was recorded every 24 hours over a period of one week and then weekly upto one month. […]

Another data set has as its system regenerated shoots. Nature of the data set: Characteristics and growth of regenerated shoots (leaf dimensions). Format: cell-based, Mentha arvensis. The note with it: medium containing 80 μg ml^−1 of menthol. How it is done:
(§3) In the next phase, the callus was sub cultured in three different media: i) the basal medium MSO containing only the vitamins and minerals without any growth hormones; ii) MSA-2 medium which is MSO with 0.2 μg ml^−1 concentration of NAA and 5 μg ml^−1 of a cytokinin BAP; and iii) MT-80 medium which is MSO with only 80 μg ml^−1 menthol. On each kind of these media, an independent callus (50 mg ) or 5 independently regenerated shoots were inoculated per flask in 5 replications each. The experiment was conducted in the completely randomized design (CRD) fashion. Cultures were incubated and maintained at 25±2° C. and 400-600 lux light intensity with 16-hour photoperiod. The response was recorded every 24 hours over a period of one week and then weekly upto one month.
The leaves were also larger in the shoots regenerated on the medium containing 80 μg ml^−1 of menthol (Table 4).

The next data set relates to Root pieces. Nature of the data set: Response of other explants in different media: root pieces. Type of data set: cell-based, Mentha arvensis. How it is done:
as §3
(§4) At this stage, the applicants wanted to know whether any other parts of the plant (explants) show similar response as callus and lead to direct regeneration. In the same experimental design we inoculated different parts of the plant in different media and the observations were recorded after 7 and 15 days.

Data set [1] relates to regenerated shoots of Mentha arvensis. Kind of data set: Response of regenerated shoots in different media. To be noted: Mentha arvensis L. cv. Himalaya, 7 days. Format: cell-based.
Description: as §1, §2

For data set [2], the system named is in vitro raised somaclones (shootlets). Nature of the data set: Earlier screening of in vitro raised somaclones in medium containing toxic concentrations of menthol. To be noted: above 70 μg ml^−1 in the medium. Format: cell-based, Mentha arvensis. How it is done:
The applicants earlier developed a protocol for screening high menthol yielding plants by inoculating the in vitro raised somaclones in medium containing toxic concentrations of menthol in the tissue culture medium (Patent pending). In this procedure, screening of 2850 variants yielded 30 clones surviving 70 μg ml^−1 of menthol concentration in the medium out of which only 5 stable clones could be isolated which were of high menthol content type in comparison to the parent variety ‘Himalaya’ (U.S. Pat No. PP 10935). […] At this point, the applicants planned experiments to subject the callus directly to menthol selection instead of the regenerated shoots to save on time, space and labour. The logic was to isolate the tolerant cell lines if any, growing from this callus later.

The test system of a further data set is Internodes. Kind of data set: Response of other explants in different media: internodes. Type of data set: cell-based, Mentha arvensis. To be noted: 7 days. How it is done: as §3, §4

Where only a bound is given, the exact number is not on record here.

Regarding `CC1CCC(C(C)C)C(O)C1` (stereo not shown) [menthol], the “Time to visible shoot induction from callus” value in the data set with Mentha arvensis callus (MSO medium containing menthol 80 μg ml^−1) was 7 to 10 days. For the same compound, in the data set with Mentha arvensis callus (text of Example 2, up to 21 days), the “Response of transferred callus pieces” value is “induced shoot regeneration”. The “Growth of menthol-induced shoots compared to shoots growing on other media” value with regenerated shoots is “more vigorous in growth”. For the same compound, the “Response of root pieces” value with Root pieces (MSO + 60 ppm menthol, 7 days) is given as “No change”; in the data set with Root pieces (MSO + 70 ppm menthol, 7 days), “No change”; in the data set on Root pieces (MSO + 70 ppm menthol, 15 days), “Wilting started”; in the data set on Root pieces (MSO + 80 ppm menthol, 7 days), “Wilting”; in the data set with Root pieces (MSO + 80 ppm menthol, 15 days) it was “Wilting”. The “Toxic concentration at which the regenerated shoots die” value in data set [1] was not below 80 µg/mL. Further, the “Effect on shootlets of increasing menthol concentration further” value in data set [2] is recorded as “killed all the shootlets”. The figures for the Response of internodes entry with Internodes (MSO + 60 ppm menthol), with Internodes (MSO + 70 ppm menthol) and in the data set on Internodes (MSO + 80 ppm menthol) were “Green”, “Green” and “Wilting”, respectively.
